Measured values from patent publication US9499550B2 (BRISTOL-MYERS SQUIBB COMPANY, priority 2012, dated 2016).
Where two headings read alike, the source gives them in different places.

How the values were obtained:
[1] = tested on: HCV genotype 1a (H77 strain) replicon in HUH-7 cells; test: HCV replicon luciferase reporter assay, genotype 1a; format: cell-based; settings: Hepatitis C virus, Huh-7, 72 h, HCV genotype 1a replicon luciferase assay, 3 days incubation
Text: (§1) Generation of HCV Replicon
(§2) An HCV replicon whole cell system was established as described by Lohmann V, Korner F, Koch J, Herian U, Theilmann L, Bartenschlager R., Science 285(5424):110-3 (1999) and modified to introduce a luciferase reporter, as first described by Krieger et al (Krieger N, Lohmann V, and Bartenschlager R, J. Virol. 75(10):4614-4624 (2001)). CDNA encoding a humanized form of the Renilla luciferase gene and a linker sequence fused directly to the 3′-end of the luciferase gene were introduced into the replicon construct using an Asc1 restriction site located in core, directly upstream of the neomycin marker gene. The adaptive mutation at position 1179 (serine to isoleucine) was also introduced (Blight K J, Kolykhalov, A A, Rice, C M, Science 290(5498):1972-1974). A stable cell line constitutively expressing this HCV replicon construct was generated by first linearizing plasmid DNAs with ScaI. RNA transcripts were synthesized in vitro using the T7 MegaScript transcription kit (Ambion, Austin, Tex.) according to manufacturer's directions. In vitro transcripts of the cDNA were transfected into the human hepatoma cell line, HUH-7. […] Resulting cell lines were characterized for positive and negative strand RNA production and protein production over time.
A stable HCV replicon luciferase reporter cell line representing the genotype 1a H77 strain (Yanagi M, Purcell R H, Emerson S U, et al. Transcripts from a single full-length cDNA clone of hepatitis C virus are infectious when directly transfected into the liver of a chimpanzee. Proc Natl Acad Sci USA 1997; 94(16):8738-8743) was generated as described previously for the genotype 1b(Con1) replicon luciferase cell line. The replicon construct was modified by introducing mutations were introduced into the genes encoding the NS3 helicase domain (proline replaced by leucine at position 1496) and NSSA (serine to isoleucine at position 2204) to improve replication in cell culture.
(§3) HCV Replicon Luciferase Reporter Assay
(§4) HCV replicon luciferase assays were developed to monitor the inhibitory effects of compounds described in the disclosure on HCV genotypes 1a and 1b viral replication. HUH-7 cells, constitutively expressing the HCV replicon, were grown in Dulbecco's Modified Eagle Media (DMEM) (Gibco-BRL) containing 10% Fetal calf serum (FCS) (Sigma) and 1 mg/mL G418 (Gibco-BRL). Compounds were serially diluted 3 folds in DMSO for a twenty-point titration and subsequently transferred to sterile 384-well tissue-culture treated plates (Corning cat #3571). The plates were then seeded with 50 μL of cells at a density of 3.0×10^3 cells/well in DMEM containing 4% FCS (final DMSO concentration at 0.5%). After 3 days incubation at 37° C., cells were analyzed for Renilla Luciferase activity using the EnduRen as substrate (Promega cat #E6485). The EnduRen substrate was diluted in DMEM and then added to the plates to a final concentration of 7.5 μM. The plates were incubated for 2 hrs at 37° C. and then read immediately for 30 seconds with Viewlux Imager (PerkinElmer) using a luminescence program. To assess cytotoxicity of compounds, CC50 values were generated by multiplexing the EnduRen-containing plates with Cell Titer-Blue (Promega, cat # G8082). Cell-Titer Blue (3 μL) was added to each well and incubated for 8 hrs at 37° C. The fluorescence signal from each well was read, with an excitation wavelength at 525/10 nm and an emission wavelength of 598/10 nm, using the Viewlux Imager.
(§5) The EC50 values for compounds were calculated by using a four-parameter logistic equation: y=A+((B−A)/(1+((C/x)^D))), where A and B denotes minimal and maximal % inhibition, respectively, C is the EC50, D is the hill slope and x represents compound concentration.

[2] = tested on: HCV genotype 1b (Con1) replicon in HUH-7 cells; test: HCV replicon luciferase reporter assay, genotype 1b; format: cell-based; settings: Hepatitis C virus, Huh-7, 72 h, HCV genotype 1b replicon luciferase assay, 3 days incubation
Text: as §1
as §2, with “time. […]” for “time.”
as §3, §4, §5

[3] = range class, read-out: LE_1a (EC50, range)
[4] = range class, read-out: LE_1b (EC50, range)

Row | Structure (SMILES) | EC50 [1, 3] [nM] | EC50 [2, 4] [nM] | EC50 ([1]; read-out: LE_1a (EC50)) [nM] | EC50 ([2]; read-out: LE_1b (EC50)) [nM]
1 | COc1cnc(O[C@@H]2C[C@H]3C(=O)N[C@]4(C(=O)NS(=O)(=O)C5(F)CC5)C[C@H]4/C=C\CC[C@@H](C)C[C@@H](C)[C@H](NC(=O)OC(C)(C)C(F)(F)F)C(=O)N3C2)c2ccccc12 [Compound 14, 1,1,1-trifluoro-2-methylpropan-2-yl((2R,6S,7R,9R,13aS,14aR,16aS,Z)-14a-(((1-fluorocyclopropyl)sulfonyl)carbamoyl)-2-((4-methoxyisoquinolin-1-yl)oxy)-7,9-dimethyl-5,16-dioxo-1,2,3,5,6,7,8,9,10,11,13a,14,14a,15,16,16a-hexadecahydrocyclopropa[e]pyrrolo[1,2-a][1,4]diazacyclopentadecin-6-yl)carbamate] | < 5.46 | < 5.46 |  | 
2 | COc1cnc(O[C@@H]2C[C@H]3C(=O)N[C@]4(C(=O)NS(=O)(=O)C5(F)CC5)C[C@H]4/C=C\CC[C@H](C)C[C@@H](C)[C@H](NC(=O)OC(C)(C)C(F)(F)F)C(=O)N3C2)c2ccccc12 [Compound 15, 1,1,1-trifluoro-2-methylpropan-2-yl((2R,6S,7R,9S,13aS,14aR,16aS,Z)-14a-(((1-fluorocyclopropyl)sulfonyl)carbamoyl)-2-((4-methoxyisoquinolin-1-yl)oxy)-7,9-dimethyl-5,16-dioxo-1,2,3,5,6,7,8,9,10,11,13a,14,14a,15,16,16a-hexadecahydrocyclopropa[e]pyrrolo[1,2-a][1,4]diazacyclopentadecin-6-yl)carbamate] | < 5.46 | < 5.46 |  | 
3 | CCOc1cnc(O[C@@H]2C[C@H]3C(=O)N[C@]4(C(=O)NS(=O)(=O)C5CC5)C[C@H]4/C=C\CC[C@@H](C)C[C@@H](C)[C@H](NC(=O)OC(C)(C)C)C(=O)N3C2)c2ccccc12 [Compound 16, tert-butyl ((2R,6S,7R,9R,13aS,14aR,16aS,Z)-14a-((cyclopropylsulfonyl)carbamoyl)-2-((4-ethoxyisoquinolin-1-yl)oxy)-7,9-dimethyl-5,16-dioxo-1,2,3,5,6,7,8,9,10,11,13a,14,14a,15,16,16a-hexadecahydrocyclopropa[e]pyrrolo[1,2-a][1,4]diazacyclopentadecin-6-yl)carbamate] | < 5.46 | < 5.46 |  | 
4 | CCOc1cnc(O[C@@H]2C[C@H]3C(=O)N[C@]4(C(=O)NS(=O)(=O)C5CC5)C[C@H]4/C=C\CC[C@@H](C)C[C@@H](C)[C@H](NC(=O)OC(C)(C)C(F)(F)F)C(=O)N3C2)c2ccccc12 [Compound 18, 1,1,1-trifluoro-2-methylpropan-2-yl((2R,6S,7R,9R,13aS,14aR,16aS,Z)-14a-((cyclopropylsulfonyl)carbamoyl)-2-((4-ethoxyisoquinolin-1-yl)oxy)-7,9-dimethyl-5,16-dioxo-1,2,3,5,6,7,8,9,10,11,13a,14,14a,15,16,16a-hexadecahydrocyclopropa[e]pyrrolo[1,2-a][1,4]diazacyclopentadecin-6-yl)carbamate] | < 5.46 | < 5.46 |  | 
5 | CC(C)Oc1cnc(O[C@@H]2C[C@H]3C(=O)N[C@]4(C(=O)NS(=O)(=O)C5CC5)C[C@H]4/C=C\CC[C@@H](C)C[C@@H](C)[C@H](NC(=O)OC(C)(C)C(F)(F)F)C(=O)N3C2)c2ccccc12 [Compound 20, 1,1,1-trifluoro-2-methylpropan-2-yl((2R,6S,7R,9R,13aS,14aR,16aS,Z)-14a-((cyclopropylsulfonyl)carbamoyl)-2-((4-isopropoxyisoquinolin-1-yl)oxy)-7,9-dimethyl-5,16-dioxo-1,2,3,5,6,7,8,9,10,11,13a,14,14a,15,16,16a-hexadecahydrocyclopropa[e]pyrrolo[1,2-a][1,4]diazacyclopentadecin-6-yl)carbamate] | < 5.46 | < 5.46 |  | 
6 | C[C@@H]1CC/C=C\[C@@H]2C[C@@]2(C(=O)NS(=O)(=O)C2CC2)NC(=O)[C@@H]2C[C@@H](Oc3ncc(OC4CC4)c4ccccc34)CN2C(=O)[C@@H](NC(=O)OC(C)(C)C)[C@H](C)C1 [Compound 22, tert-butyl ((2R,6S,7R,9R,13aS,14aR,16aS,Z)-2-((4-cyclopropoxyisoquinolin-1-yl)oxy)-14a-((cyclopropylsulfonyl)carbamoyl)-7,9-dimethyl-5,16-dioxo-1,2,3,5,6,7,8,9,10,11,13a,14,14a,15,16,16a-hexadecahydrocyclopropa[e]pyrrolo[1,2-a][1,4]diazacyclopentadecin-6-yl)carbamate] | < 5.46 | < 5.46 | 0.43 | 0.4
7 | C[C@@H]1CC/C=C\[C@@H]2C[C@@]2(C(=O)NS(=O)(=O)C2CC2)NC(=O)[C@@H]2C[C@@H](Oc3ncc(OC4CC4)c4ccccc34)CN2C(=O)[C@@H](NC(=O)OC(C)(C)C(F)(F)F)[C@H](C)C1 [Compound 24, 1,1,1-trifluoro-2-methylpropan-2-yl((2R,6S,7R,9R,13aS,14aR,16aS,Z)-2-((4-cyclopropoxyisoquinolin-1-yl)oxy)-14a-((cyclopropylsulfonyl)carbamoyl)-7,9-dimethyl-5,16-dioxo-1,2,3,5,6,7,8,9,10,11,13a,14,14a,15,16,16a-hexadecahydrocyclopropa[e]pyrrolo[1,2-a][1,4]diazacyclopentadecin-6-yl)carbamate] | < 5.46 | < 5.46 |  | 
8 | C[C@H]1CC/C=C\[C@@H]2C[C@@]2(C(=O)NS(=O)(=O)C2CC2)NC(=O)[C@@H]2C[C@@H](Oc3ncc(OC4CC4)c4ccccc34)CN2C(=O)[C@@H](NC(=O)OC(C)(C)C(F)(F)F)[C@H](C)C1 [Compound 25, 1,1,1-trifluoro-2-methylpropan-2-yl((2R,6S,7R,9S,13aS,14aR,16aS,Z)-2-((4-cyclopropoxyisoquinolin-1-yl)oxy)-14a-((cyclopropylsulfonyl)carbamoyl)-7,9-dimethyl-5,16-dioxo-1,2,3,5,6,7,8,9,10,11,13a,14,14a,15,16,16a-hexadecahydrocyclopropa[e]pyrrolo[1,2-a][1,4]diazacyclopentadecin-6-yl)carbamate] | 4.82 to 103 | 4.82 to 103 |  | 
9 | COc1cnc(O[C@@H]2C[C@H]3C(=O)N[C@]4(C(=O)NS(=O)(=O)C5CC5)C[C@H]4/C=C\CC[C@@H](C)C[C@@H](C)[C@H](NC(=O)OC(C)(C)C(F)(F)F)C(=O)N3C2)c2cccc(Cl)c12 [Compound 27, 1,1,1-trifluoro-2-methylpropan-2-yl((2R,6S,7R,9R,13aS,14aR,16aS,Z)-2-((5-chloro-4-methoxyisoquinolin-1-yl)oxy)-14a-((cyclopropylsulfonyl)carbamoyl)-7,9-dimethyl-5,16-dioxo-1,2,3,5,6,7,8,9,10,11,13a,14,14a,15,16,16a-hexadecahydrocyclopropa[e]pyrrolo[1,2-a][1,4]diazacyclopentadecin-6-yl)carbamate] | < 5.46 | < 5.46 |  | 
